Data reported in patent US5840732A, “Imidazopyridine or imidazopyrimidine compounds, their production and use” (Takeda Chemical Industries Ltd., priority 1994, dated 1998).

What was measured:
[1] = tested on: ICAM-1 expression in human umbilical cord vascular endothelial cells; experiment: Inhibitory activity of adhesion molecule expression (ICAM-1, cell-ELISA); assay type: cell-based; settings: TNFα 1 ng/ml, 37° C., 5 hours
Procedure: (§1) Inhibitory activity of adhesion molecule expression
(§2) Test method: To human umbilical cord vascular endothelial cells (purchased from Kurabo), cultured on gelatin-coated plates, compounds at various concentrations (test compounds) were added, followed by incubation at 37° C. for 15 minutes. Human tumor necrosis factor (TNFα, purchased from Genzyme) was then added to a final concentration of 1 ng/ml, followed by incubation at 37° C. for 3 hours for ELAM-1 expression or for 5 hours for ICAM-1 expression. After the reaction, cells were fixed with glutaraldehyde; the amounts of ELAM-1 and ICAM-1 expressed were determined by cell-ELISA. Anti-ELAM-1 antibody BBA-2 and an anti-ICAM-1 antibody BBA-4 were used as the first antibodies for the defection of ELAM-1 and ICAM-1, respectively, and horse radish peroxidase-labeled rabbit anti-mouse IgG antibody was used as the second antibody to determine the amount of adhesion molecules expressed on cells observed. The compound concentration at which 50% expression was expressed as the 50% inhibitory concentration (IC50), with the amount of expression in the absence of compounds as 100 and the amount of expression in the absence of TNFα as 0.

[2] = tested on: ELAM-1 expression in human umbilical cord vascular endothelial cells; experiment: Inhibitory activity of adhesion molecule expression (ELAM-1, cell-ELISA); assay type: cell-based; settings: TNFα 1 ng/ml, 37° C., 3 hours
Procedure: as §1, §2

[3] = tested on: Wistar fatty rats (rat model of hereditary obese diabetes mellitus); experiment: Diabetic nephritis improving action in Wistar fatty rats; assay type: in vivo, rat (male Wistar fatty); settings: 50 mg/kg/day oral, 12 weeks, n=6, mean ± standard deviation; for Urinary Albumin: control 35.69 ± 15.44 (for 2), 24.53 ± 7.19 (for 3); for Urinary Total Protein: control 145.19 ± 34.99 (for 2), 131.53 ± 22.81 (for 3), both p < 0.05 vs control; for Plasma Glucose: control 352.00 ± 36.09 (for 2), 368.83 ± 24.35 (for 3), 3: p < 0.05 vs control
Procedure: Diabetic nephritis improving action in Wistar fatty rats (rat model of hereditary obese diabetes mellitus)
Test method: Male Wistar fatty rats at 9 weeks of age were divided into two groups according to plasma glucose level, urinary total protein excretion and body weight: a control group and a test compound group (n=6). The test compound, in suspension in 0.5% methyl cellulose (Wako Pure Chemical) at 2 ml/kg, was orally administered by gavage once a day for 12 consecutive weeks. For the control group, only the 0.5% methyl cellulose suspension was orally administered in the same manner as the test compounds. At every 3 weeks, plasma glucose, urinary total protein and albumin excretion were quantitated by the enzyme method, the Lowry method (Journal of Biological Chemistry, Vol. 193, pp. 265-275 (1951)] and the method of Mohamed et al. [Journal of Immunology Methods, Vol. 74, pp. 17-22 (1984)], respectively.

Compound | IC50 [1] [µM] | IC50 [2] [µM] | Urinary Albumin [3] [mg/day] | Urinary Total Protein [3] [mg/day] | Plasma Glucose [3] [mg/dL]
CCCC=C1SC(=O)N(CCCCSc2cccc3nccn23)C1=O [compound 2] | 3 | 2.9 | 20.49 ± 6.95 | 96.64 ± 18.31 | 333.67 ± 46.41
CCCC=C1SC(=O)N(CCCCCc2cccc3nccn23)C1=O [compound 3] | 4.2 | 5 | 22.34 ± 7.24 | 97.61 ± 16.26 | 253.17 ± 34.14
CCCC=C1SC(=O)N(CCSc2cccc3nccn23)C1=O [compound 5] | 3.5 | 5.3 | – | – | –
CCCCCCCCCC=C1SC(=O)N(CCCCSc2cccc3nccn23)C1=O [compound 6] | 6.3 | 7.3 | – | – | –
CCCC=C1SC(=O)N(CCCCc2cccc3nccn23)C1=O [compound 7] | 3.1 | 2.3 | – | – | –
CCCC=C1SC(=O)N(CCCCOc2cccc3nccn23)C1=O [compound 8] | 4.4 | 3.8 | – | – | –
CCCC=C1OC(=O)N(CCCCSc2cccc3nccn23)C1=O [compound 9] | 2.4 | 2.6 | – | – | –
CCC=C1SC(=O)N(CCCCSc2cccc3nccn23)C1=O [compound 10] | 2.4 | 2.3 | – | – | –
CC=C1SC(=O)N(CCCCSc2cccc3nccn23)C1=O [compound 11] | 2.9 | 1.9 | – | – | –
CCCC=C1SC(=O)N(CCCc2cccc3nccn23)C1=O [compound 12] | 4.9 | 4.4 | – | – | –
CCCC=C1SC(=O)N(CSc2cccc3nccn23)C1=O [compound 13] | 6.3 | 5.1 | – | – | –
CCCC=C1SC(=O)N(CCc2cccc3nccn23)C1=O [compound 14] | 6.1 | 5.1 | – | – | –
CCCC=C1SC(=O)N(Cc2cccc3nccn23)C1=O [compound 15] | 7 | 6.2 | – | – | –
O=C1SC(=CCCc2ccccc2)C(=O)N1CCCCSc1cccc2nccn12 [compound 19] | 3.9 | 3 | – | – | –
O=C1SC(=CCCCc2ccccc2)C(=O)N1CCCCSc1cccc2nccn12 [compound 21] | 4 | 3.3 | – | – | –
CCCC=C1SC(=O)N(CCCCSc2cccc3nc(C)cn23)C1=O [compound 23] | 7 | 3.6 | – | – | –
CCCC=C1SC(=O)N(CCCCSc2nccc3nccn23)C1=O [compound 25] | 8 | 4 | – | – | –
CCCC=C1SC(=O)N(CCCCOc2cccn3cc(-c4ccccc4)nc23)C1=O [compound 26] | 3.7 | 4.1 | – | – | –
CCCC=C1SC(=O)N(CCCCOc2cccn3cc(C(=O)OCC)nc23)C1=O [compound 27] | 6.5 | 5 | – | – | –

Compound | IC50 [1] [µM] | IC50 [2] [µM] | Urinary Albumin [3] [mg/day] | Urinary Total Protein [3] [mg/day] | Plasma Glucose [3] [mg/dL]
O=C1OC(=CCCc2ccccc2)C(=O)N1CCCCOc1cccn2ccnc12 [compound 32] | 5.7 | 3.2 | – | – | –
O=C1OC(=CCCc2ccccc2)C(=O)N1CCCCSc1cccc2nccn12 [compound 33] | 6.3 | 2.8 | – | – | –
CCCC=C1SC(=O)N(CCCCOc2cccn3c(C(=O)C(F)(F)F)cnc23)C1=O [compound 34] | 6.1 | 5.2 | – | – | –
CCCC=C1SC(=O)N(CCCCSc2cccc3ncc(C(=O)C(F)(F)F)n23)C1=O [compound 35] | 4.6 | 3.4 | – | – | –
O=c1c(-c2ccccc2)c2n(c(=O)n1CCCCSc1cccc3nccn13)CCS2(=O)=O [compound 36] | 3.7 | 2.1 | – | – | –
O=C1SC(=CCCc2cccnc2)C(=O)N1CCCCSc1cccc2nccn12 [compound 38] | 3.7 | 3.4 | – | – | –
O=C1SC(=CCCc2cccnc2)C(=O)N1CCCCOc1cccn2ccnc12 [compound 39] | 2.4 | 3.3 | – | – | –
Cc1c2n(c(=O)n(CCCCSc3cccc4nccn34)c1=O)CCCS2(=O)=O [compound 40] | 1.8 | 1.1 | – | – | –
O=c1c(Cc2ccccc2)c2n(c(=O)n1CCCCSc1cccc3nccn13)CCCS2(=O)=O [compound 41] | 0.9 | 0.5 | – | – | –
CC(C)c1c2n(c(=O)n(CCCCSc3cccc4nccn34)c1=O)CCCS2(=O)=O [compound 42] | 1.5 | 1 | – | – | –
O=c1cc2n(c(=O)n1CCCCSc1cccc3nccn13)CCCS2(=O)=O [compound 43] | 3.5 | 2.2 | – | – | –
CCCC=C1SC(=O)N(CCCOc2cccn3ccnc23)C1=O [compound 47] | 4.2 | 3 | – | – | –
CCCC=C1SC(=O)N(CCCCOc2cccn3cc(C)nc23)C1=O [compound 48] | 6.4 | 4.6 | – | – | –
CCCC=C1SC(=O)N(CCCCSc2cccc3ncc(Br)n23)C1=O [compound 50] | 6.9 | 4.7 | – | – | –
O=c1c(-c2ccccc2)c2n(c(=O)n1CCCCSc1cccc3nccn13)CCC[S+]2[O-] (stereo not drawn) [compound 51] | 6.8 | 2.8 | – | – | –
O=C(NCCCn1c(=O)c(-c2ccccc2)c2n(c1=O)CCCS2(=O)=O)OCCc1cccc2nccn12 [compound 53] | 6.3 | 6.2 | – | – | –
CCCC=C1SC(=O)N(CCC(C)(C)CCSc2cccc3nccn23)C1=O [compound 54] | 5 | 6.1 | – | – | –
CCCC=C1SC(=O)N(CCC2(CCSc3cccc4nccn34)CCCC2)C1=O [compound 55] | 5.5 | 7.3 | – | – | –
CN(C)Cc1cnc2cccc(SCCCCn3c(=O)c(-c4ccccc4)c4n(c3=O)CCCS4(=O)=O)n12 [compound 56] | 5.7 | 3.9 | – | – | –

Compound | IC50 [1] [µM] | IC50 [2] [µM] | Urinary Albumin [3] [mg/day] | Urinary Total Protein [3] [mg/day] | Plasma Glucose [3] [mg/dL]
CCCCCCC=C1SC(=O)N(CCCCSc2cccc3nccn23)C1=O [compound 57] | 7.1 | 7.9 | – | – | –
CCCCCCCC=C1SC(=O)N(CCCCSc2cccc3nccn23)C1=O [compound 60] | 9 | 9.2 | – | – | –
O=C1SC(=CCCCCc2ccccc2)C(=O)N1CCCCSc1cccc2nccn12 [compound 65] | 5.3 | 5 | – | – | –
O=C1SC(=CCCc2ccccc2)C(=O)N1CCCCOc1cccn2ccnc12 [compound 67] | 3.9 | 3.4 | – | – | –
CCC=C1SC(=O)N(CCCCOc2cccn3ccnc23)C1=O [compound 68] | 5 | 3.2 | – | – | –
CCCCC=C1SC(=O)N(CCCCOc2cccn3ccnc23)C1=O [compound 69] | 6.1 | 4 | – | – | –
CCCCCC=C1SC(=O)N(CCCCOc2cccn3ccnc23)C1=O [compound 70] | 6.9 | 5.3 | – | – | –
CCCCCCCC=C1SC(=O)N(CCCCOc2cccn3ccnc23)C1=O [compound 71] | 5.2 | 4.6 | – | – | –
CCCCCCCCCC=C1SC(=O)N(CCCCOc2cccn3ccnc23)C1=O [compound 72] | 5.6 | 6.4 | – | – | –
CCCCCC=C1OC(=O)N(CCCCOc2cccn3ccnc23)C1=O [compound 75] | 6.1 | 3.5 | – | – | –
CCC/C=C1\OC(=O)N(CCCCOc2cccn3c(C(=O)C(F)(F)F)cnc23)C1=O [compound 76] | 7.1 | 6.7 | – | – | –
CCC/C=C1/OC(=O)N(CCCCOc2cccn3c(C(=O)C(F)(F)F)cnc23)C1=O [compound 77] | 6 | 6.3 | – | – | –
O=C(CCCSc1cccc2nccn12)NCCCn1c(=O)c(-c2ccccc2)c2n(c1=O)CCCS2(=O)=O [compound 79] | 5.9 | 6.1 | – | – | –
COc1ccc(CCC=C2SC(=O)N(CCCCSc3cccc4nccn34)C2=O)cc1 [compound 80] | 4.1 | 4.6 | – | – | –
COc1ccccc1CCC=C1SC(=O)N(CCCCSc2cccc3nccn23)C1=O [compound 81] | 4.3 | 6.1 | – | – | –
O=C1SC(=CCCc2ccc(F)cc2)C(=O)N1CCCCSc1cccc2nccn12 [compound 82] | 3.6 | 4.3 | – | – | –
O=C1SC(=CCCc2ccccc2F)C(=O)N1CCCCSc1cccc2nccn12 [compound 83] | 3.8 | 3.7 | – | – | –
O=C1SC(=CCCc2ccccc2Cl)C(=O)N1CCCCSc1cccc2nccn12 [compound 84] | 3.6 | 4.1 | – | – | –
O=C1SC(=CCCc2ccc(Cl)cc2)C(=O)N1CCCCSc1cccc2nccn12 [compound 85] | 3.9 | 4.3 | – | – | –
